The source of these data is patent US4329426A, “Process for preparation of antibiotics and biologically pure culture for use therein” (Kowa Company, Ltd., priority 1978, dated 1982).

Each structure is given as a SMILES string. A value given as a limit tells only on which side of the number the result lay.

One data set concerns mice. Kind of data set: Acute toxicity in mice. The class given is in vivo. To be noted: iv.
One may read the LD50 as the dose at which mortality reaches 50%. On to `CNCC1CCC(N)C(OC2C(N)CC(OC)C(NC)C2O)O1` (stereo not drawn) [KA-7038 VI], for which the LD50 was above 300 mg/kg.

Staying with this data set, now noted: sc.
In turn, `CNCC1CCC(N)C(OC2C(N)CC(OC)C(NC)C2O)O1` (stereo not drawn) [KA-7038 VI] showed a median lethal dose (LD50) above 600 mg/kg.

System in a further data set: not listed separately
Nature of the data set: Acute toxicity in mice. The class given is in vivo. Conditions: mouse, in vivo, iv.
On to `CNCC1CCC(N)C(OC2C(N)CC(OC)C(NC)C2O)O1` (stereo not drawn) [KA-7038 III], for which the 50% lethal dose (LD50) is above 300 mg/kg.

`CNC1C(O)CC(N)C(OC2OC(CN)CCC2N)C1O` (stereo not drawn) [KA-7038 II] yielded an LD50 above 300 mg/kg.

Molecule `CNC1C(O)C(OC2OC(CN)CCC2N)C(N)C(O)C1OC` (stereo not drawn) [KA-7038 IV] yielded a 50% lethal dose (LD50) above 300 mg/kg.

In turn, `CNCC1CCC(N)C(OC2C(N)CC(OC)C(N(C)C(=O)CN)C2O)O1` (stereo not drawn) [KA-7038 I] gave a 50% lethal dose (LD50) above 100 mg/kg.

`CNC1C(OC)CC(N)C(OC2OC(CN)CCC2N)C1O` (stereo not drawn) [KA-7038 V] gave an LD50 above 300 mg/kg.

Still in this data set, the particulars now being: mouse, in vivo, sc.
Consider `CNCC1CCC(N)C(OC2C(N)CC(OC)C(NC)C2O)O1` (stereo not drawn) [KA-7038 III], for which the 50% lethal dose (LD50) is above 600 mg/kg.

The molecule `CNC1C(O)CC(N)C(OC2OC(CN)CCC2N)C1O` (stereo not drawn) [KA-7038 II] came in with a median lethal dose (LD50) above 600 mg/kg.

With `CNC1C(O)C(OC2OC(CN)CCC2N)C(N)C(O)C1OC` (stereo not drawn) [KA-7038 IV], the LD50 was above 600 mg/kg.

In turn, `CNCC1CCC(N)C(OC2C(N)CC(OC)C(N(C)C(=O)CN)C2O)O1` (stereo not drawn) [KA-7038 I] came in with an LD50 above 400 mg/kg.

With `CNC1C(OC)CC(N)C(OC2OC(CN)CCC2N)C1O` (stereo not drawn) [KA-7038 V], the 50% lethal dose (LD50) was above 600 mg/kg.

System in the next data set: not listed separately
Kind of data set: Solubility. Type of data set: physicochemical. Conditions: acetone.
As for `CNCC1CCC(N)C(OC2C(N)CC(OC)C(NC)C2O)O1` (stereo not drawn) [KA-7038 III], the Solubility in acetone entry was “slightly soluble”.

With `CNC1C(O)CC(N)C(OC2OC(CN)CCC2N)C1O` (stereo not drawn) [KA-7038 II], the Solubility in acetone entry is listed as “slightly soluble”.

For `CNC1C(O)C(OC2OC(CN)CCC2N)C(N)C(O)C1OC` (stereo not drawn) [KA-7038 IV], the Solubility in acetone result is on record as “slightly soluble”.

On to `CNCC1CCC(N)C(OC2C(N)CC(OC)C(N(C)C(=O)CN)C2O)O1` (stereo not drawn) [KA-7038 I], for which the Solubility in acetone entry was “sightly soluble”.

On to `CNCC1CCC(N)C(OC2C(N)CC(OC)C(NC)C2O)O1` (stereo not drawn) [KA-7038 VI], for which the Solubility in acetone entry is “slightly soluble”.

In the case of `CNC1C(OC)CC(N)C(OC2OC(CN)CCC2N)C1O` (stereo not drawn) [KA-7038 V], the Solubility in acetone result is reported as “slightly soluble”.

The data set is the same for the next values; noted with them: chloroform, ethyl acetate, diethyl ether, hexane and petroleum ether.
Take `CNCC1CCC(N)C(OC2C(N)CC(OC)C(NC)C2O)O1` (stereo not drawn) [KA-7038 III]: the “Solubility in chloroform, ethyl acetate, diethyl ether, hexane and petroleum ether” value (“Solubility in chloroform, ethyl acetate” below) is reported as “Insoluble”.

For `CNC1C(O)CC(N)C(OC2OC(CN)CCC2N)C1O` (stereo not drawn) [KA-7038 II], the “Solubility in chloroform, ethyl acetate” value is “Insoluble”.

Take `CNC1C(O)C(OC2OC(CN)CCC2N)C(N)C(O)C1OC` (stereo not drawn) [KA-7038 IV]: the “Solubility in chloroform, ethyl acetate” value is reported as “Insoluble”.

Take `CNCC1CCC(N)C(OC2C(N)CC(OC)C(N(C)C(=O)CN)C2O)O1` (stereo not drawn) [KA-7038 I]: the “Solubility in chloroform, ethyl acetate” value is listed as “Insoluble”.

Take `CNCC1CCC(N)C(OC2C(N)CC(OC)C(NC)C2O)O1` (stereo not drawn) [KA-7038 VI]: the “Solubility in chloroform, ethyl acetate” value is on record as “Insoluble”.

Regarding `CNC1C(OC)CC(N)C(OC2OC(CN)CCC2N)C1O` (stereo not drawn) [KA-7038 V], the “Solubility in chloroform, ethyl acetate” value was “Insoluble”.

The data set is the same for the next values; noted with them: ethanol.
As for `CNCC1CCC(N)C(OC2C(N)CC(OC)C(NC)C2O)O1` (stereo not drawn) [KA-7038 III], the Solubility in ethanol result is “little soluble”.

In the case of `CNC1C(O)CC(N)C(OC2OC(CN)CCC2N)C1O` (stereo not drawn) [KA-7038 II], the Solubility in ethanol entry is “little soluble”.

With `CNC1C(O)C(OC2OC(CN)CCC2N)C(N)C(O)C1OC` (stereo not drawn) [KA-7038 IV], the Solubility in ethanol entry was “little soluble”.

`CNCC1CCC(N)C(OC2C(N)CC(OC)C(N(C)C(=O)CN)C2O)O1` (stereo not drawn) [KA-7038 I]: the Solubility in ethanol result is on record as “little soluble”.

On to `CNCC1CCC(N)C(OC2C(N)CC(OC)C(NC)C2O)O1` (stereo not drawn) [KA-7038 VI], for which the Solubility in ethanol result is “little soluble”.

On to `CNC1C(OC)CC(N)C(OC2OC(CN)CCC2N)C1O` (stereo not drawn) [KA-7038 V], for which the Solubility in ethanol result is given as “little soluble”.

The data set is the same for the next values; noted with them: methanol.
Turning to `CNCC1CCC(N)C(OC2C(N)CC(OC)C(NC)C2O)O1` (stereo not drawn) [KA-7038 III], the Solubility in methanol entry is on record as “Easily soluble”.

Regarding `CNC1C(O)CC(N)C(OC2OC(CN)CCC2N)C1O` (stereo not drawn) [KA-7038 II], the Solubility in methanol result is “Easily soluble”.

As for `CNC1C(O)C(OC2OC(CN)CCC2N)C(N)C(O)C1OC` (stereo not drawn) [KA-7038 IV], the Solubility in methanol entry is recorded as “Easily soluble”.

Regarding `CNCC1CCC(N)C(OC2C(N)CC(OC)C(N(C)C(=O)CN)C2O)O1` (stereo not drawn) [KA-7038 I], the Solubility in methanol result is given as “Easily soluble”.

For the molecule `CNCC1CCC(N)C(OC2C(N)CC(OC)C(NC)C2O)O1` (stereo not drawn) [KA-7038 VI], the Solubility in methanol result was “Easily soluble”.

Turning to `CNC1C(OC)CC(N)C(OC2OC(CN)CCC2N)C1O` (stereo not drawn) [KA-7038 V], the Solubility in methanol result is listed as “Easily soluble”.

Still in this data set, the particulars now being: water.
As for `CNCC1CCC(N)C(OC2C(N)CC(OC)C(NC)C2O)O1` (stereo not drawn) [KA-7038 III], the Solubility in water entry was “Very readily soluble”.

`CNC1C(O)CC(N)C(OC2OC(CN)CCC2N)C1O` (stereo not drawn) [KA-7038 II]: the Solubility in water result is reported as “Very readily soluble”.

`CNC1C(O)C(OC2OC(CN)CCC2N)C(N)C(O)C1OC` (stereo not drawn) [KA-7038 IV]: the Solubility in water entry is recorded as “Very readily soluble”.

On to `CNCC1CCC(N)C(OC2C(N)CC(OC)C(N(C)C(=O)CN)C2O)O1` (stereo not drawn) [KA-7038 I], for which the Solubility in water entry is given as “Very readily soluble”.

Turning to `CNCC1CCC(N)C(OC2C(N)CC(OC)C(NC)C2O)O1` (stereo not drawn) [KA-7038 VI], the Solubility in water result is listed as “Very readily soluble”.

With `CNC1C(OC)CC(N)C(OC2OC(CN)CCC2N)C1O` (stereo not drawn) [KA-7038 V], the Solubility in water result is reported as “Very readily soluble”.
